Measurements: patent US20260001928A1 (CORTERIA PHARMACEUTICALS, priority 2022, published 2026)
*1 amine or outer side, *2 acyl side, *3 side chain or, on linkers, in order; H or OH if unused. Where a SMILES comes first, the peptide text is derived from it. Side-chain parts run from the residue outwards. [ ]: non-standard residue; d: D form. The star is where a group is joined. C20 diacid = O=C(O)CCCCCCCCCCCCCCCCCCC(=O)*; C16 diacid = O=C(O)CCCCCCCCCCCCCCC(=O)*; γGlu = O=C(O)[C@H](CCC(=O)[*:2])N[*:1]; Aib = CC(C)(N)C(=O)O

What follows are compounds tested on human LAD2 cells.
Type: cell-based
Protocol: LAD2 cells (20000 cells/well, 96-well plates and 10,000 cells/well in 384-well plates) were incubated with compounds for 30 min. The R-hexosaminidase released into the supernatants and in cell lysates was quantified using the fluorogenic substrate 4-methylumbelliferyl-N-acetyl-b-D-glucosaminide.
On the day of the assay, the lyophilized peptides were dissolved in DMSO and/or PBS 1× pH 7.4, to obtain stock solutions. The stock solutions were used to prepare working serial dilutions to have final concentrations in assay ranging from 50, 100 or 300 to 0.1 or 0.001 μM. Each peptide was tested in biological duplicates. When compounds were dissolved in DMSO, the final solvent concentration in assay was 0.5% (v/v).
The percentage of degranulation, expressed as % of R-hexosaminidase release, was calculated by dividing the fluorescence signal of the supernatant by the sum of the signals from the supernatant and cell pellet (lysed with Triton X-100, final 1%) and multiplying by 100.
Dose-response curves were generated by plotting the % of R-hexosaminidase release versus total release of cells treated with triton (y-axis) against the concentrations of peptides tested (x-axis). The Mast Cell Degranulation (MCD) EC50 values and standard errors were calculated using XLfit 5.5.0.5 based on the following equation:
4 Parameter Sigmoidal Model: f=(A+((B−A)/(1+((C/x)^D))))
where A=Emin, B=Emax, C=EC50 and D=slope

Row | SMILES | EC50
1 | CC[C@H](C)[C@H](NC(C)=O)C(=O)N[C@H](C(=O)N[C@@H](CC(C)C)C(=O)N[C@@H](CO)C(=O)N[C@@H](CC(C)C)C(=O)N[C@@H](CC(=O)O)C(=O)N[C@@H](C(=O)N1CCC[C@H]1C(=O)N[C@H](C(=O)N[C@@H](C)C(=O)N[C@@H](CC(C)C)C(=O)N[C@@H](CCCCNC(=O)CC[C@H](NC(=O)CCCCCCCCCCCCCCC(=O)O)C(=O)O)C(=O)N[C@@H](CCCCN)C(=O)N[C@H](C(=O)N[C@@H](CC(C)C)C(=O)N[C@@H](CC(C)C)C(=O)N[C@@H](CCC(=O)O)C(=O)N[C@@H](CCC(N)=O)C(=O)N[C@@H](CCC(=O)O)C(=O)N[C@@H](CCCCN)C(=O)N[C@@H](CCC(N)=O)C(=O)N[C@@H](CCCCN)C(=O)N[C@@H](CCCCN)C(=O)N[C@@H](CCC(N)=O)C(=O)N[C@@H](CCCNC(=N)N)C(=O)N[C@@H](CCC(=O)O)C(=O)N[C@@H](CCC(N)=O)C(=O)N[C@@H](C)C(=O)N[C@@H](CCC(=O)O)C(=O)N[C@H](C(=O)N[C@@H](CC(N)=O)C(=O)NC(C)(C)C(=O)N[C@@H](CCC(N)=O)C(=O)N[C@H](C(=O)N[C@@H](CC(C)C)C(=O)N[C@@H](C)C(=O)N[C@@H](CCC(N)=O)C(=O)N[C@H](C(N)=O)C(C)C)[C@@H](C)CC)[C@@H](C)O)[C@@H](C)CC)[C@@H](C)CC)C(C)C)C(C)C [Cmpd 163] (Ac-IVLSLD[dV]PIALK([γGlu-C16 diacid])KILLEQEKQKKQREQAETN[Aib]QILAQV-NH2) | > 100 µM
2 | CC[C@H](C)[C@H](NC(C)=O)C(=O)N[C@H](C(=O)N[C@@H](CC(C)C)C(=O)N[C@@H](CO)C(=O)N[C@@H](CC(C)C)C(=O)N[C@@H](CC(=O)O)C(=O)N[C@@H](C(=O)N1CCC[C@H]1C(=O)N[C@H](C(=O)N[C@@H](CCCCN)C(=O)N[C@@H](CC(C)C)C(=O)N[C@@H](CCCCNC(=O)CC[C@H](NC(=O)CCCCCCCCCCCCCCC(=O)O)C(=O)O)C(=O)N[C@@H](CCCCN)C(=O)N[C@H](C(=O)N[C@@H](CC(C)C)C(=O)N[C@@H](CC(C)C)C(=O)N[C@@H](CCC(=O)O)C(=O)N[C@@H](CCC(N)=O)C(=O)N[C@@H](CCC(=O)O)C(=O)N[C@@H](C)C(=O)N[C@@H](CCC(N)=O)C(=O)N[C@@H](CCCCN)C(=O)N[C@@H](CCCCN)C(=O)N[C@@H](CCC(N)=O)C(=O)N[C@@H](CCCNC(=N)N)C(=O)N[C@@H](CCC(=O)O)C(=O)N[C@@H](CCC(N)=O)C(=O)N[C@@H](C)C(=O)N[C@@H](CCC(=O)O)C(=O)N[C@H](C(=O)N[C@@H](CC(N)=O)C(=O)NC(C)(C)C(=O)N[C@@H](CCC(N)=O)C(=O)N[C@H](C(=O)N[C@@H](CC(C)C)C(=O)N[C@@H](C)C(=O)N[C@@H](CCC(N)=O)C(=O)N[C@H](C(N)=O)C(C)C)[C@@H](C)CC)[C@@H](C)O)[C@@H](C)CC)[C@@H](C)CC)C(C)C)C(C)C [Cmpd 165] (Ac-IVLSLD[dV]PIKLK([γGlu-C16 diacid])KILLEQEAQKKQREQAETN[Aib]QILAQV-NH2) | > 100 µM
3 | CC[C@H](C)[C@H](NC(C)=O)C(=O)N[C@H](C(=O)N[C@@H](CC(C)C)C(=O)N[C@@H](CO)C(=O)N[C@@H](CC(C)C)C(=O)N[C@@H](CC(=O)O)C(=O)N[C@@H](C(=O)N1CCC[C@H]1C(=O)N[C@H](C(=O)N[C@@H](CCCCN)C(=O)N[C@@H](CC(C)C)C(=O)N[C@@H](CCCCNC(=O)CC[C@H](NC(=O)CCCCCCCCCCCCCCC(=O)O)C(=O)O)C(=O)N[C@@H](CCCCN)C(=O)N[C@H](C(=O)N[C@@H](CC(C)C)C(=O)N[C@@H](CC(C)C)C(=O)N[C@@H](CCC(=O)O)C(=O)N[C@@H](CCC(N)=O)C(=O)N[C@@H](CCC(=O)O)C(=O)N[C@@H](CCCCN)C(=O)N[C@@H](CCC(N)=O)C(=O)N[C@@H](C)C(=O)N[C@@H](CCCCN)C(=O)N[C@@H](CCC(N)=O)C(=O)N[C@@H](CCCNC(=N)N)C(=O)N[C@@H](CCC(=O)O)C(=O)N[C@@H](CCC(N)=O)C(=O)N[C@@H](C)C(=O)N[C@@H](CCC(=O)O)C(=O)N[C@H](C(=O)N[C@@H](CC(N)=O)C(=O)NC(C)(C)C(=O)N[C@@H](CCC(N)=O)C(=O)N[C@H](C(=O)N[C@@H](CC(C)C)C(=O)N[C@@H](C)C(=O)N[C@@H](CCC(N)=O)C(=O)N[C@H](C(N)=O)C(C)C)[C@@H](C)CC)[C@@H](C)O)[C@@H](C)CC)[C@@H](C)CC)C(C)C)C(C)C [Cmpd 166] (Ac-IVLSLD[dV]PIKLK([γGlu-C16 diacid])KILLEQEKQAKQREQAETN[Aib]QILAQV-NH2) | > 100 µM
4 | CC[C@H](C)[C@H](NC(C)=O)C(=O)N[C@H](C(=O)N[C@@H](CC(C)C)C(=O)N[C@@H](CO)C(=O)N[C@@H](CC(C)C)C(=O)N[C@@H](CC(=O)O)C(=O)N[C@@H](C(=O)N1CCC[C@H]1C(=O)N[C@H](C(=O)N[C@@H](CCCCN)C(=O)N[C@@H](CC(C)C)C(=O)N[C@@H](CCCCNC(=O)CC[C@H](NC(=O)CCCCCCCCCCCCCCC(=O)O)C(=O)O)C(=O)N[C@@H](CCCCN)C(=O)N[C@H](C(=O)N[C@@H](CC(C)C)C(=O)N[C@@H](CC(C)C)C(=O)N[C@@H](CCC(=O)O)C(=O)N[C@@H](CCC(N)=O)C(=O)N[C@@H](CCC(=O)O)C(=O)N[C@@H](CCCCN)C(=O)N[C@@H](CCC(N)=O)C(=O)N[C@@H](CCCCN)C(=O)N[C@@H](CCCCN)C(=O)N[C@@H](CCC(N)=O)C(=O)N[C@@H](C)C(=O)N[C@@H](CCC(=O)O)C(=O)N[C@@H](CCC(N)=O)C(=O)N[C@@H](C)C(=O)N[C@@H](CCC(=O)O)C(=O)N[C@H](C(=O)N[C@@H](CC(N)=O)C(=O)NC(C)(C)C(=O)N[C@@H](CCC(N)=O)C(=O)N[C@H](C(=O)N[C@@H](CC(C)C)C(=O)N[C@@H](C)C(=O)N[C@@H](CCC(N)=O)C(=O)N[C@H](C(N)=O)C(C)C)[C@@H](C)CC)[C@@H](C)O)[C@@H](C)CC)[C@@H](C)CC)C(C)C)C(C)C [Cmpd 167] (Ac-IVLSLD[dV]PIKLK([γGlu-C16 diacid])KILLEQEKQKKQAEQAETN[Aib]QILAQV-NH2) | > 50 µM

Further lines, results first:

Row | EC50 | SMILES
5 | > 300 µM | CC[C@H](C)[C@H](NC(C)=O)C(=O)N[C@H](C(=O)N[C@@H](CC(C)C)C(=O)N[C@@H](CO)C(=O)N[C@@H](CC(C)C)C(=O)N[C@@H](CC(=O)O)C(=O)N[C@@H](C(=O)N1CCC[C@H]1C(=O)N[C@H](C(=O)N[C@@H](CCCCN)C(=O)N[C@@H](CC(C)C)C(=O)N[C@@H](CCCCNC(=O)CC[C@H](NC(=O)CCCCCCCCCCCCCCC(=O)O)C(=O)O)C(=O)N[C@@H](CCCCN)C(=O)N[C@H](C(=O)N[C@@H](CC(C)C)C(=O)N[C@@H](CC(C)C)C(=O)N[C@@H](CCC(=O)O)C(=O)N[C@@H](CCC(N)=O)C(=O)N[C@@H](CCC(=O)O)C(=O)N[C@@H](CCCCN)C(=O)N[C@@H](CCC(N)=O)C(=O)N[C@@H](CCCCN)C(=O)N[C@@H](CCC(=O)O)C(=O)N[C@@H](CCC(N)=O)C(=O)N[C@@H](CCCNC(=N)N)C(=O)N[C@@H](CCC(=O)O)C(=O)N[C@@H](CCC(N)=O)C(=O)N[C@@H](C)C(=O)N[C@@H](CCC(=O)O)C(=O)N[C@H](C(=O)N[C@@H](CC(N)=O)C(=O)NC(C)(C)C(=O)N[C@@H](CCC(N)=O)C(=O)N[C@H](C(=O)N[C@@H](CC(C)C)C(=O)N[C@@H](C)C(=O)N[C@@H](CCC(N)=O)C(=O)N[C@H](C(N)=O)C(C)C)[C@@H](C)CC)[C@@H](C)O)[C@@H](C)CC)[C@@H](C)CC)C(C)C)C(C)C [Cmpd 168] (Ac-IVLSLD[dV]PIKLK([γGlu-C16 diacid])KILLEQEKQKEQREQAETN[Aib]QILAQV-NH2)
6 | > 300 µM | CC[C@H](C)[C@H](NC(C)=O)C(=O)N[C@H](C(=O)N[C@@H](CC(C)C)C(=O)N[C@@H](CO)C(=O)N[C@@H](CC(C)C)C(=O)N[C@@H](CC(=O)O)C(=O)N[C@@H](C(=O)N1CCC[C@H]1C(=O)N[C@H](C(=O)N[C@@H](CCCCN)C(=O)N[C@@H](CC(C)C)C(=O)N[C@@H](CCCCNC(=O)CC[C@H](NC(=O)CCCCCCCCCCCCCCCCCCC(=O)O)C(=O)O)C(=O)N[C@@H](CCCCN)C(=O)N[C@H](C(=O)N[C@@H](CC(C)C)C(=O)N[C@@H](CC(C)C)C(=O)N[C@@H](CCC(=O)O)C(=O)N[C@@H](CCC(N)=O)C(=O)N[C@@H](CCC(=O)O)C(=O)N[C@@H](CCCCN)C(=O)N[C@@H](CCC(N)=O)C(=O)N[C@@H](CCCCN)C(=O)N[C@@H](C)C(=O)N[C@@H](CCC(N)=O)C(=O)N[C@@H](CCCNC(=N)N)C(=O)N[C@@H](CCC(=O)O)C(=O)N[C@@H](CCC(N)=O)C(=O)N[C@@H](C)C(=O)N[C@@H](CCC(=O)O)C(=O)N[C@H](C(=O)N[C@@H](CC(N)=O)C(=O)NC(C)(C)C(=O)N[C@@H](CCC(N)=O)C(=O)N[C@H](C(=O)N[C@@H](CC(C)C)C(=O)N[C@@H](C)C(=O)N[C@@H](CCC(N)=O)C(=O)N[C@H](C(N)=O)C(C)C)[C@@H](C)CC)[C@@H](C)O)[C@@H](C)CC)[C@@H](C)CC)C(C)C)C(C)C [Cmpd 212] (Ac-IVLSLD[dV]PIKLK([γGlu-C20 diacid])KILLEQEKQKAQREQAETN[Aib]QILAQV-NH2)
